Experimental findings from US7045532B2 (Millennium Pharmaceuticals, Inc., priority 1999, dated 2006) are described below.

In the assay the target is T1, ACE-2 (Homo sapiens, UniProt Q9BYF1).
T1 construct: a stop codon inserted after the serine immediately preceding the transmembrane domain; made in house; host or cells: CHO K1 cells (transient transfection, purified from conditioned medium)
The assay can be described thus: ACE-2 Competitive Substrate Assay (ACS Assay). The class given is biochemical.

The mark [1] stands for this setting: Ki class, compounds tested in 5% DMSO, 12 compound concentrations, Ki=Kiapp/(1+[S]/Km), read-out: Human ACE-2 Activity.
Where [2] appears, read: Table 3, very good ACE-2 inhibiting compounds, species not given, read-out: ACE-2 Activity, Ki.
Where [3] appears, read: Ki class per key, compounds tested in 5% DMSO, 12 compound concentrations, 25° C., Ki=Kiapp/(1+[S]/Km), read-out: Human ACE-2 Activity.

SMILES strings stand for the structures. Read-outs that look alike come from different tables or passages of the source. A value given as a limit tells only on which side of the number the result lay.

T1 sequence (Q9BYF1 18-740 limits assumed): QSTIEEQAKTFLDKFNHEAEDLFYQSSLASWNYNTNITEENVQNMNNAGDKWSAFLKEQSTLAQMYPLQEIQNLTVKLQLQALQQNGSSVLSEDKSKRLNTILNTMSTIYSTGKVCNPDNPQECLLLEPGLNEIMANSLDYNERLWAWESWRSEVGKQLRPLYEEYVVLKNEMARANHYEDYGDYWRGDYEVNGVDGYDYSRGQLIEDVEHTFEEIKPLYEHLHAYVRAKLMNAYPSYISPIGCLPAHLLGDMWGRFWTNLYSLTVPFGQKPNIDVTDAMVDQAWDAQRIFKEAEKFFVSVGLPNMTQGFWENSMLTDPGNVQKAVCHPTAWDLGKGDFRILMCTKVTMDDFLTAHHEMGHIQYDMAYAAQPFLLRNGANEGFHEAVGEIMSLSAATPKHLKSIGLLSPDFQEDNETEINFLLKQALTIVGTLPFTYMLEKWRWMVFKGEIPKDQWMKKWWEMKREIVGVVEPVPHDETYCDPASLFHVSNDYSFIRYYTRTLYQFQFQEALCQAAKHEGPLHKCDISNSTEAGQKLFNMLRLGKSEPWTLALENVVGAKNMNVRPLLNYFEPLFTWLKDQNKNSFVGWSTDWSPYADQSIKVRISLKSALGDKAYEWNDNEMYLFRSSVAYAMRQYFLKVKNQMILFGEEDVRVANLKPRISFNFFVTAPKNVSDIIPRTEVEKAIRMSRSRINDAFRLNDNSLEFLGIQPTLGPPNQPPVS

Turning to `CC(C)CC(NC(Cc1cccc(OCc2ccc(C(F)(F)F)cc2C(F)(F)F)c1)C(=O)O)C(=O)O` (centres unmarked) [OC, 2-{2-[3-(2,4-Bis-trifluoromethyl-benzyloxy)-phenyl]-1-carboxy-ethylamino}-4-methyl-pentanoic acid], the Ki under setting [1] is > 500 nM.
The same measure, in the same setting: the figure for `CC(C)C[C@H](N[C@@H](Cc1ccn(-c2ccccc2)n1)C(=O)O)C(=O)O` [OD, 2-[1-carboxy-2-(1phenyl-1H-pyrazol-3-yl)-ethylamino]-4-methyl-pentanoic acid] is 100 to 500 nM.
Turning to `CC(C)C[C@H](N[C@@H](Cn1ccn(Cc2cccc(Cl)c2)c1=O)C(=O)O)C(=O)O` [OE, (S,S)-2-{1-Carboxy-2-[3-(3-chloro-benzyl)-2-oxo-2,3-dihydro-imidazol-1-yl]-ethylamino}-4-methyl-pentanoic acid], the Ki was < 100 nM under setting [1] and < 50 nM under setting [2].
As to `CC(C)C[C@H](N[C@@H](Cc1ccc(Cc2cc(Cl)cc(Cl)c2)cc1)C(=O)O)C(=O)O` [OF, (S,S)-2-{1-Carboxy-2-[4-(3,5-dichloro-benzyl)-phenyl]-ethylamino}-4-methyl-pentanoic acid], the Ki under setting [1] is > 500 nM.
In the case of `CC(C)C[C@H](N[C@@H](Cc1ccc(Cc2ccccc2)cc1)C(=O)O)C(=O)O` [OG, (S,S)-2-[2-(4-Benzyl-phenyl)-1-carboxy-ethylamino]-4-methyl-pentanoic acid], the Ki runs as follows: under setting [1], < 100 nM; under setting [2], 50 to 100 nM.
Take `CC(C)C[C@H](N[C@@H](CC(=O)Nc1nc(-c2ccccc2)cs1)C(=O)O)C(=O)O` [OH, (S,S)-2-[1-Carboxy-2-(4-phenyl-thiazol-2-ylcarbamoyl)-ethylamino]-4-methyl-pentanoic acid]: the Ki under setting [1] is > 500 nM.
Consider `COc1ccc(-c2ccc(C[C@H](N[C@@H](CC(C)C)C(=O)O)C(=O)O)o2)cc1` [OI, (S,S)-2-{1-Carboxy-2-[5-(4-methoxy-phenyl)-furan-2-yl]-ethylamino}-4-methyl-pentanoic acid], for which, under setting [1], the Ki was in the range of 100 to 500 nM.
The same measure, in the same setting: the figure for `CC(C)C[C@H](N[C@@H](Cc1ccc(-c2ccc3c(c2)OCO3)o1)C(=O)O)C(=O)O` [OJ, (S,S)-2-[2-(5-Benzo[1,3]dioxol-5-yl-furan-2-yl)-1-carboxy-ethylamino]-4-methyl-pentanoic acid] is 100 to 500 nM; for `CC(C)C[C@H](N[C@@H](Cc1ccc(-c2cccc3ccccc23)o1)C(=O)O)C(=O)O` [OK] it is 100 to 500 nM.
Still for that read-out and setting: the figure for `CC(C)C[C@H](N[C@@H](Cc1ccc(-c2ccc(Cl)cc2)o1)C(=O)O)C(=O)O` [OL, (S,S)-2-{1-Carboxy-2-[5-(4-chloro-phenyl)-furan-2-yl]-ethylamino}-4-methyl-pentanoic acid] is > 500 nM.
On the same count and under the same terms, the figure for `CC(C)C[C@H](N[C@@H](Cc1ccc(-c2ccc(C(F)(F)F)cc2)o1)C(=O)O)C(=O)O` [OM, (S,S)-2-{1-Carboxy-2-[5-(4-trifluoromethyl-phenyl)-furan-2-yl]-ethylamino}-4-methyl-pentanoic acid] is > 500 nM.
For `CC(C)COc1cccc(C[C@H](N[C@@H](CC(C)C)C(=O)O)C(=O)O)c1` [ON, 2-[1-Carboxy-2-(3-isobutoxy-phenyl)-ethylamino]-4-methyl-pentanoic acid], the Ki under setting [1] was > 500 nM.
As for `CC(C)C[C@H](N[C@@H](Cc1cccc(OCc2cccc(Cl)c2)c1)C(=O)O)C(=O)O` [OO, S,S-2-{1-Carboxy-2-[3-(3-chloro-benzyloxy)-phenyl]-ethylamino}-4-methyl-pentanoic acid], the Ki under setting [1] was < 100 nM and the Ki under setting [2] was 50 to 100 nM.
Turning to `CC(C)C[C@H](N[C@@H](Cc1cccc(OCc2ccccc2Cl)c1)C(=O)O)C(=O)O` [OP, S,S-2-{1-Carboxy-2-[3-(2-chloro-benzyloxy)-phenyl]-ethylamino}-4-methyl-pentanoic acid], under setting [1], the Ki is > 500 nM.
Turning to `CC(C)C[C@H](N[C@@H](CCc1ccc(OCc2ccccc2)cc1)C(=O)O)C(=O)O` [OQ, (S,S) 2-[3-(4-Benzyloxy-phenyl)-1-carboxy-propylamino]-4-methyl-pentanoic acid], the Ki under setting [1] fell in the range of 100 to 500 nM.
Still for that read-out and setting: the figure for `CC(C)C[C@H](N[C@@H](Cc1ccn(-c2ccccc2)n1)C(=O)OC(C)(C)C)C(=O)O` [OR] is > 500 nM; for `CC(C)C[C@H](N[C@@H](Cc1ccc(-c2cccc(Cl)c2)o1)C(=O)O)C(=O)O` [OS, (S), (S)-2-{1-Carboxy-2-[5-(3-chloro-phenyl)-furan-2-yl]-ethylamino}-4-methyl-pentanoic acid] it is > 500 nM.
Consider `CC(C)C[C@H](N[C@@H](Cn1ccn(Cc2cccc(F)c2)c1=O)C(=O)O)C(=O)O` [OT, 2-{1-Carboxy-2-[3-(3-fluoro-benzyl)-2-oxo-2,3-dihydro-imidazol-1-yl]-ethylamino]-4-methyl-pentanoic acid], for which the Ki reads like this: under setting [1], < 100 nM; under setting [2], 50 to 100 nM.
With `CC(C)C[C@H](N[C@@H](Cn1ccn(Cc2ccc(F)c(F)c2)c1=O)C(=O)O)C(=O)O` [OU, 2-[1-Carboxy-2-[3-(3,4-difluoro-benzyl)-2-oxo-2,3-dihydro-imidazol-1-yl]-ethylamino]-4-methyl-pentanoic acid], the Ki under setting [1] was 100 to 500 nM.
Same read-out and setting: the figure for `CC(C)C[C@H](N[C@@H](CCC(=O)Nc1nc2ccc(F)cc2s1)C(=O)O)C(=O)O` [OV, (S,S)-2-[1-Carboxy-3-(6-fluoro-benzothiazol-2-ylcarbamoyl)-propylamino]-4-methyl-pentanoic acid] is > 500 nM.
`CC(C)C[C@H](N[C@@H](Cn1ccn(Cc2cc(F)ccc2F)c1=O)C(=O)O)C(=O)O` [OW, 2-[1-Carboxy-2-[3-(2,5-difluoro-benzyl)-2-oxo-2,3-dihydro-imidazol-1-yl]-ethylamino]-4-methyl-pentanoic acid]: the Ki is, setting by setting: under setting [1], < 100 nM; under setting [2], 50 to 100 nM.
In the case of `CC(C)C[C@H](N[C@@H](Cc1ccc(NC(=O)c2cc(F)cc(F)c2)cc1)C(=O)O)C(=O)O` [OX, (S,S) 2-{1-Carboxy-2-[4-(3,5-difluoro-benzoylamino)-phenyl]-ethylamino}-4-methyl-pentanoic acid], the Ki is < 100 nM under setting [3] and < 50 nM under setting [2].
For `CC(C)C[C@H](N[C@@H](Cc1ccc(-c2ccc(F)cc2)cc1)C(=O)O)C(=O)O` [OY, (S,S)-[1-Carboxy-2-(4′-fluoro-biphenyl-4-yl)-ethylamino]-4-methyl-pentanoic acid], in that order: < 100 nM and < 50 nM.
For `CC(C)C[C@H](N[C@@H](Cc1ccc(-c2ccc3c(c2)OCO3)cc1)C(=O)O)C(=O)O` [OZ, 2-[2-(4-Benzo[1,3]dioxol-5-yl-phenyl)-1-carboxy-ethylamino]-4-methyl-pentanoic acid], in that order: < 100 nM and 50 to 100 nM.
For `CC(C)C[C@H](N[C@@H](Cc1ccc(-c2csc3ccccc23)cc1)C(=O)O)C(=O)O` [PA, 2-[2-(4-Benzo[b]thiophen-3-yl-phenyl)-1-carboxy-ethylamino]-4-methyl-pentanoic acid] the same measures were < 100 nM and < 50 nM.
Turning to `CC(C)C[C@H](N[C@@H](Cc1cccc(Cc2ccccc2)c1)C(=O)O)C(=O)O` [PB, (S,S)-2-[2-(3-Benzyl-phenyl)-1-carboxy-ethylamino]-4-methyl-pentanoic acid], the Ki under setting [3] is > 500 nM.
On to `CC(C)C[C@H](N[C@@H](Cc1ccc(-c2ccc(C(F)(F)F)cc2)cc1)C(=O)O)C(=O)O` [PC, (S,S)-2-[1-Carboxy-2-(4′-trifluoromethyl-biphenyl-4-yl)-ethylamino]-4-methyl-pentanoic acid], for which the Ki runs as follows: under setting [3], < 100 nM; under setting [2], 50 to 100 nM.
On to `CC(C)C[C@H](N[C@@H](Cc1ccc(NS(=O)(=O)c2ccccc2)cc1)C(=O)O)C(=O)O` [PE, (S,S) 2-[2-(4-Benzenesulfonylamino-phenyl)-1-carboxy-ethylamino]-4-methyl-pentanoic acid], for which the Ki under setting [3] was > 500 nM.
On the same count and under the same terms, with `CC(C)C[C@H](N[C@@H](Cc1cccc(Cc2cccc(Cl)c2)c1)C(=O)O)C(=O)O` [PF, 2-[1-Carboxy-2-[3-(3-chloro-benzyl)-phenyl]-ethylamino]-4-methyl-pentanoic acid] the figure was 100 to 500 nM; with `CC(C)C[C@H](N[C@@H](Cc1cccc(Cc2cc(Cl)cc(Cl)c2)c1)C(=O)O)C(=O)O` [PG, (S,S)-2-{1-Carboxy-2-[3-(3,5-dichloro-benzyl)-phenyl]-ethylamino}-4-methyl-pentanoic acid], 100 to 500 nM.
Regarding `CC(C)C[C@H](N[C@@H](Cc1cccc(OCc2csc3ccc(Cl)cc23)c1)C(=O)O)C(=O)O` [PH, S,S-2-{1-Carboxy-2-[3-(5-chloro-benzo[b]thiophen-3-ylmethoxy)-phenyl]-ethylamino}-4-methyl-pentanoic acid], the Ki under setting [3] was < 100 nM and the Ki under setting [2] was < 50 nM.
For `CC(C)C[C@H](N[C@@H](Cc1ccc(-c2ccccn2)cc1)C(=O)O)C(=O)O` [PI, (S,S)-2-[1-Carboxy-2-(4-pyridin-2-yl-phenyl)-ethylamino]-4-methyl-pentanoic acid], in that order: < 100 nM and 50 to 100 nM.
For `CC(C)C[C@H](N[C@@H](Cc1ccc(-c2cccnc2)cc1)C(=O)O)C(=O)O` [PJ, (S,S)-2-[1-Carboxy-2-(4-pyridin-3-yl-phenyl)-ethylamino]-4-methyl-pentanoic acid], in that order: < 100 nM and 50 to 100 nM.
With `CC(C)C[C@H](N[C@@H](Cc1ccc(-c2ccncc2)cc1)C(=O)O)C(=O)O` [PK, (S,S)-2-[1-Carboxy-2-(4-pyridin-4-yl-phenyl)-ethylamino]-4-methyl-pentanoic acid], under setting [3], the Ki was in the range of 100 to 500 nM.
For the compound `C[C@H](N[C@@H](Cc1cncn1Cc1cc(Cl)cc(Cl)c1)C(=O)O)C(=O)O` [PL, (S,S) 2-(1-Carboxy-ethylamino)-3-[3-(3,5-dichloro-benzyl)-3H-imidazol-4-yl]-propionic acid], the Ki is, setting by setting: under setting [3], < 100 nM; under setting [2], < 50 nM.
For `C[C@@H](N[C@@H](Cc1cncn1Cc1cc(Cl)cc(Cl)c1)C(=O)O)C(=O)O` [PM, 2-(1-Carboxy-ethylamino)-3-[3-(3,5-dichloro-benzyl)-3H-imidazol-4-yl]-propionic acid], the Ki under setting [3] is > 500 nM.
